In one assay the test system is HeLa human epithelial cervix carcinoma cells. The experiment in a line: MTT cell viability, HeLa. The class given is cell-based. The settings on record: 72 h exposure, mean ± SD, read-out: Antiproliferative activity IC50, HeLa. An excerpt: (§1) The six cell lines used in this work were purchased from American Type Culture Collection (ATCC, Manassas, VA). MCF-7 human breast cancer cells, oestrogen receptor (ER) positives, were maintained in Dulbecco’s Modified Eagle’s Medium/Nutrient Mixture F-12 Ham (DMEM/F12), supplemented with 5% foetal bovine serum (FBS) and 100 U/ml penicillin/streptomycin, as previously described. MDA-MB-231, human breast cancer cells, oestrogen receptor (ER) negative, were maintained in Dulbecco’s Modified Eagle’s Medium/Nutrient Mixture F-12 Ham (DMEM/F12), supplemented with 5% Newborn Calf Serum (NCS) and 100 U/ml penicillin/streptomycin. HeLa human epithelial cervix carcinoma cells, oestrogen receptor (ER) negative, and ISHIKAWA human endometrial adenocarcinoma cell, oestrogen receptor positive, were maintained in minimum essential medium (MEM), supplemented with 10% FBS, 100 U/ml penicillin/streptomycin and 1% non-essential amino acid. 3T3-L1 cells line of murine fibroblasts of embryonic type, were maintained in DMEM, supplemented with 10% NCS and 100 U/ml penicillin/streptomycin. MCF-10A human mammary epithelial cells were cultured in DMEM/F12 medium, supplemented with 5% horse serum (HS) (Eurobio, Les Ullis, Cedex, France), 100 U/ml penicillin/streptomycin, […] hydrocortisone, 20 ng/ml hEGF (human epidermal growth factor), 10 μg/ml insulin and […] cholera enterotoxin (Sigma-Aldrich, Milano, Italy). Cells were maintained at 37 °C in a humidified atmosphere of 95% air and 5% CO2 and periodically screened for contamination.
(§2) MDA-MB-231, MCF-7, HeLa and ISHIKAWA cells were grown in complete medium and, before being treated, they were serum deprived for 24 h, to allow cell cycle synchronisation. Then cells were grown in phenol red-free medium supplemented with 1% DCC (destran-coated charcoal treated) FBS, then treated with increasing concentrations (0.1, 1, 10, 20, 40, 100 µM) of each compound for 72 h. Compounds were dissolved in dimethylsulphoxide (DMSO) (Sigma, St. Louis, MO) and diluted in each cell medium. Untreated cells, used as a control, were added with DMSO alone (final concentration 0.1%). Cell viability was assessed using the 3-[4,5-dimethylthiazol-2-yl]-2,5-diphenyltetrazolium bromide reagent (MTT), according to the protocol from manufacturer (Sigma-Aldrich, Milan, Italy), as previously described[37] ^, [38]. For each sample, the mean absorbance, measured at 570 nm, was expressed as a percentage of the control and plotted versus drug concentration to determine for each cell line the IC50 values (namely, drugs concentrations able to reduce cell viability of 50% with respect to the control), using GraphPad Prism 5 Software (GraphPad Inc., San Diego, CA)[39]. Each experiment was carried out in quadruplicate. Standard deviations (SD) were shown.
Sequence of hTopoII (P11388 whole entry): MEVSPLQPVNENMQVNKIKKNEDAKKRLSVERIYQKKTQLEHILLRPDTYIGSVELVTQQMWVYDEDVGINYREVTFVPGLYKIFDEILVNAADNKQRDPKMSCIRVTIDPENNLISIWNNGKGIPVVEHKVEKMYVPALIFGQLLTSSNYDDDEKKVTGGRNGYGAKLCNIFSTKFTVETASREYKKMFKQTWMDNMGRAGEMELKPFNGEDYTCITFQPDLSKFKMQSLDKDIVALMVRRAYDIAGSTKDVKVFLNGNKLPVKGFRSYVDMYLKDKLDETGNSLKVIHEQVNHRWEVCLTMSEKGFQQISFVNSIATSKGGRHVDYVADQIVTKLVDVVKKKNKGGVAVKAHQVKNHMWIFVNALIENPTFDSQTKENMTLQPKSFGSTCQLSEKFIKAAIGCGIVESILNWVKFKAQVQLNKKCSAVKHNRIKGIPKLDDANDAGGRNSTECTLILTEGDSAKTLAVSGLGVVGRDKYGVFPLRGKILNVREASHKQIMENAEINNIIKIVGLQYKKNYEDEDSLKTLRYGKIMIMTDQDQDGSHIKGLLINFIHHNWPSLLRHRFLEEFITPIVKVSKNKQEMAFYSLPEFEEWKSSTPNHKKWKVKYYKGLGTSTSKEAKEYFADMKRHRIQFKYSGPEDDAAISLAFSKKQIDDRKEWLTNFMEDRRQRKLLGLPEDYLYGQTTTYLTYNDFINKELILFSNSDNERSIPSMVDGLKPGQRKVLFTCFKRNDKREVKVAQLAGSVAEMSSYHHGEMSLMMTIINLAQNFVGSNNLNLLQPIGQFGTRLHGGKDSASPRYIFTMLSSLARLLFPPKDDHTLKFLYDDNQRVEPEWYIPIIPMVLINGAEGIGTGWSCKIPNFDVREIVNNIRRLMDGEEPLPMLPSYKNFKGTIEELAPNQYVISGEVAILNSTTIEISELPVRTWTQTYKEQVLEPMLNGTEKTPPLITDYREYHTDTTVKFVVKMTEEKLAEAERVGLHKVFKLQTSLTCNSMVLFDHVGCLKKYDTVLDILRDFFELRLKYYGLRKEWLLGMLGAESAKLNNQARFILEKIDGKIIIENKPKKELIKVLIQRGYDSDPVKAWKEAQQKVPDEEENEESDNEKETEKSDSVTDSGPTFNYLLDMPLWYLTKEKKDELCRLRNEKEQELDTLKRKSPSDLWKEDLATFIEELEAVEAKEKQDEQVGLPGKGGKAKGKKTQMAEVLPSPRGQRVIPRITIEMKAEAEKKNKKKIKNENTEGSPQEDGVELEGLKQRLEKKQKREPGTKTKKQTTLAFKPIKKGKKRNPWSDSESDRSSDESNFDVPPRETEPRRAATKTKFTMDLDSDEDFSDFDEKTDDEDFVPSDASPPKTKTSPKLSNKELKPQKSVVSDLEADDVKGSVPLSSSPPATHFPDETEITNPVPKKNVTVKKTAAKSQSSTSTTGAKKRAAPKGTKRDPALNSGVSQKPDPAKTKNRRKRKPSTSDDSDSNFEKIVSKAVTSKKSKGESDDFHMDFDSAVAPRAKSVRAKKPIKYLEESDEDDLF
As for `SCCCCCCCn1c2ccccc2c2ccccc21` [5a, 7-(9H-Carbazol-9-yl)heptane-1-thiol], the IC50 was 12.8 ± 0.62 µM.
On the same count and under the same terms, then `Cc1ccc2c(c1)c1c(C)ccc(C)c1n2CCCCCCCS` [5b, 7-(1,4,6-Trimethyl-9H-carbazol-9-yl)-heptane-1-thiol], with greater than 100 µM; and `SCCCCCCCCn1c2ccccc2c2ccccc21` [6a, 8-(9H-Carbazol-9-yl)octane-1-thiol], with greater than 100 µM; and `Cc1ccc2c(c1)c1c(C)ccc(C)c1n2CCCCCCCCS` [6b, 8-(1,4,6-Trimethyl-9H-carbazol-9-yl)-octane-1-thiol], with greater than 100 µM.
In the case of `Cc1ccc(C)c2c1c1cc(Br)ccc1n2CCCCCCCCS` [6c, 8-(6-Bromo-1,4-dimethyl-9H-carbazol-9-yl)-octane-1-thiol], the IC50 was greater than 100 µM.
Same read-out and setting: then `SCCCCCCCCCn1c2ccccc2c2ccccc21` [7a, 9-(9H-Carbazol-9-yl)nonane-1-thiol], with greater than 100 µM; and `Cc1ccc2c(c1)c1c(C)ccc(C)c1n2CCCCCCCCCS` [7b, 9-(1,4,6-Trimethyl-9H-carbazol-9-yl)-nonane-1-thiol], with greater than 100 µM; and `Cc1ccc(C)c2c1c1cc(Br)ccc1n2CCCCCCCCCS` [7c, 9-(6-Bromo-1,4-dimethyl-9H-carbazol-9-yl)-nonane-1-thiol], with greater than 100 µM.
Same read-out and setting: then `Cc1c2ccncc2c(C)c2c1[nH]c1ccccc12` [Ellipticine, reference compound], with 1.05 ± 0.5 µM.

Another assay concerns MDA-MB-231 human breast cancer cells. Kind of assay: MTT cell viability, MDA-MB-231. It is filed as cell-based. Conditions: 72 h exposure, mean ± SD, read-out: Antiproliferative activity IC50, MDA-MB-231.
Description: as §1, §2
Turning to `SCCCCCCCn1c2ccccc2c2ccccc21` [5a, 7-(9H-Carbazol-9-yl)heptane-1-thiol], the IC50 is 39.9 ± 0.52 µM.
On the same count and under the same terms, then `Cc1ccc2c(c1)c1c(C)ccc(C)c1n2CCCCCCCS` [5b, 7-(1,4,6-Trimethyl-9H-carbazol-9-yl)-heptane-1-thiol], with greater than 100 µM; and `SCCCCCCCCn1c2ccccc2c2ccccc21` [6a, 8-(9H-Carbazol-9-yl)octane-1-thiol], with greater than 100 µM; and `Cc1ccc2c(c1)c1c(C)ccc(C)c1n2CCCCCCCCS` [6b, 8-(1,4,6-Trimethyl-9H-carbazol-9-yl)-octane-1-thiol], with greater than 100 µM.
On the same count and under the same terms, then `Cc1ccc(C)c2c1c1cc(Br)ccc1n2CCCCCCCCS` [6c, 8-(6-Bromo-1,4-dimethyl-9H-carbazol-9-yl)-octane-1-thiol], with greater than 100 µM; and `SCCCCCCCCCn1c2ccccc2c2ccccc21` [7a, 9-(9H-Carbazol-9-yl)nonane-1-thiol], with greater than 100 µM.
Still for that read-out and setting: then `Cc1ccc2c(c1)c1c(C)ccc(C)c1n2CCCCCCCCCS` [7b, 9-(1,4,6-Trimethyl-9H-carbazol-9-yl)-nonane-1-thiol], with greater than 100 µM.
Take `Cc1ccc(C)c2c1c1cc(Br)ccc1n2CCCCCCCCCS` [7c, 9-(6-Bromo-1,4-dimethyl-9H-carbazol-9-yl)-nonane-1-thiol]: the IC50 is greater than 100 µM.
Take `Cc1c2ccncc2c(C)c2c1[nH]c1ccccc12` [Ellipticine, reference compound]: the IC50 stood at 1.85 ± 0.15 µM.

The next assay relates to ISHIKAWA human endometrial adenocarcinoma cells. Kind of assay: MTT cell viability, ISHIKAWA
The class given is cell-based. The settings on record: 72 h exposure, mean ± SD, read-out: Antiproliferative activity IC50, ISHIKAWA
Description: as §1, §2
As to `SCCCCCCCn1c2ccccc2c2ccccc21` [5a, 7-(9H-Carbazol-9-yl)heptane-1-thiol], the IC50 was determined as 19.2 ± 1.13 µM.
Consider `Cc1ccc2c(c1)c1c(C)ccc(C)c1n2CCCCCCCS` [5b, 7-(1,4,6-Trimethyl-9H-carbazol-9-yl)-heptane-1-thiol], for which the concentration for half-maximal inhibition (IC50) is greater than 100 µM.
For the molecule `SCCCCCCCCn1c2ccccc2c2ccccc21` [6a, 8-(9H-Carbazol-9-yl)octane-1-thiol], the IC50 is greater than 100 µM.
Still for that read-out and setting: then `Cc1ccc2c(c1)c1c(C)ccc(C)c1n2CCCCCCCCS` [6b, 8-(1,4,6-Trimethyl-9H-carbazol-9-yl)-octane-1-thiol], with greater than 100 µM.
Same read-out and setting: then `Cc1ccc(C)c2c1c1cc(Br)ccc1n2CCCCCCCCS` [6c, 8-(6-Bromo-1,4-dimethyl-9H-carbazol-9-yl)-octane-1-thiol], with greater than 100 µM; and `SCCCCCCCCCn1c2ccccc2c2ccccc21` [7a, 9-(9H-Carbazol-9-yl)nonane-1-thiol], with greater than 100 µM; and `Cc1ccc2c(c1)c1c(C)ccc(C)c1n2CCCCCCCCCS` [7b, 9-(1,4,6-Trimethyl-9H-carbazol-9-yl)-nonane-1-thiol], with greater than 100 µM.
On the same count and under the same terms, then `Cc1ccc(C)c2c1c1cc(Br)ccc1n2CCCCCCCCCS` [7c, 9-(6-Bromo-1,4-dimethyl-9H-carbazol-9-yl)-nonane-1-thiol], with greater than 100 µM.
Take `Cc1c2ccncc2c(C)c2c1[nH]c1ccccc12` [Ellipticine, reference compound]: the IC50 is 1.7 ± 0.8 µM.

For a further assay, the system named is MCF-7 human breast cancer cells. The experiment in a line: MTT cell viability, MCF-7. Conditions: MCF7, 72 h exposure, mean ± SD, read-out: Antiproliferative activity IC50, MCF-7. It is filed as cell-based.
Description: as §1, §2
Take `SCCCCCCCn1c2ccccc2c2ccccc21` [5a, 7-(9H-Carbazol-9-yl)heptane-1-thiol]: the IC50 worked out at 50.4 ± 0.96 µM.
Still for that read-out and setting: then `Cc1ccc2c(c1)c1c(C)ccc(C)c1n2CCCCCCCS` [5b, 7-(1,4,6-Trimethyl-9H-carbazol-9-yl)-heptane-1-thiol], with greater than 100 µM; and `SCCCCCCCCn1c2ccccc2c2ccccc21` [6a, 8-(9H-Carbazol-9-yl)octane-1-thiol], with greater than 100 µM; and `Cc1ccc2c(c1)c1c(C)ccc(C)c1n2CCCCCCCCS` [6b, 8-(1,4,6-Trimethyl-9H-carbazol-9-yl)-octane-1-thiol], with greater than 100 µM.
As to `Cc1ccc(C)c2c1c1cc(Br)ccc1n2CCCCCCCCS` [6c, 8-(6-Bromo-1,4-dimethyl-9H-carbazol-9-yl)-octane-1-thiol], the half-inhibitory concentration (IC50) was greater than 100 µM.
Still for that read-out and setting: then `SCCCCCCCCCn1c2ccccc2c2ccccc21` [7a, 9-(9H-Carbazol-9-yl)nonane-1-thiol], with greater than 100 µM.
On the same count and under the same terms, then `Cc1ccc2c(c1)c1c(C)ccc(C)c1n2CCCCCCCCCS` [7b, 9-(1,4,6-Trimethyl-9H-carbazol-9-yl)-nonane-1-thiol], with greater than 100 µM; and `Cc1ccc(C)c2c1c1cc(Br)ccc1n2CCCCCCCCCS` [7c, 9-(6-Bromo-1,4-dimethyl-9H-carbazol-9-yl)-nonane-1-thiol], with greater than 100 µM.
On the same count and under the same terms, then `Cc1c2ccncc2c(C)c2c1[nH]c1ccccc12` [Ellipticine, reference compound], with 1.25 ± 0.3 µM.

In the next assay the test system is MCF-10A human mammary epithelial cells. Kind of assay: MTT cell viability, MCF-10A. It is filed as cell-based. The settings on record: non-tumoural cells, 72 h exposure, mean ± SD, read-out: Antiproliferative activity IC50, MCF-10a.
Description: as §1, §2
For the molecule `SCCCCCCCn1c2ccccc2c2ccccc21` [5a, 7-(9H-Carbazol-9-yl)heptane-1-thiol], the IC50 was greater than 100 µM.
As to `Cc1ccc2c(c1)c1c(C)ccc(C)c1n2CCCCCCCS` [5b, 7-(1,4,6-Trimethyl-9H-carbazol-9-yl)-heptane-1-thiol], the IC50 was greater than 100 µM.
Same read-out and setting: then `SCCCCCCCCn1c2ccccc2c2ccccc21` [6a, 8-(9H-Carbazol-9-yl)octane-1-thiol], with greater than 100 µM.
Same read-out and setting: then `Cc1ccc2c(c1)c1c(C)ccc(C)c1n2CCCCCCCCS` [6b, 8-(1,4,6-Trimethyl-9H-carbazol-9-yl)-octane-1-thiol], with greater than 100 µM; and `Cc1ccc(C)c2c1c1cc(Br)ccc1n2CCCCCCCCS` [6c, 8-(6-Bromo-1,4-dimethyl-9H-carbazol-9-yl)-octane-1-thiol], with greater than 100 µM.
Same read-out and setting: then `SCCCCCCCCCn1c2ccccc2c2ccccc21` [7a, 9-(9H-Carbazol-9-yl)nonane-1-thiol], with greater than 100 µM; and `Cc1ccc2c(c1)c1c(C)ccc(C)c1n2CCCCCCCCCS` [7b, 9-(1,4,6-Trimethyl-9H-carbazol-9-yl)-nonane-1-thiol], with greater than 100 µM.
Take `Cc1ccc(C)c2c1c1cc(Br)ccc1n2CCCCCCCCCS` [7c, 9-(6-Bromo-1,4-dimethyl-9H-carbazol-9-yl)-nonane-1-thiol]: the IC50 was greater than 100 µM.
Same read-out and setting: then `Cc1c2ccncc2c(C)c2c1[nH]c1ccccc12` [Ellipticine, reference compound], with 1.2 ± 0.2 µM.

Another assay relates to 3T3-L1 murine fibroblasts. Kind of assay: MTT cell viability, 3T3-L1. It is filed as cell-based. Conditions: Mus musculus, non-tumoural cells, 72 h exposure, mean ± SD, read-out: Antiproliferative activity IC50, 3T3-L1.
Description: as §1, §2
`SCCCCCCCn1c2ccccc2c2ccccc21` [5a, 7-(9H-Carbazol-9-yl)heptane-1-thiol]: the IC50 is greater than 100 µM.
The same measure, in the same setting: then `Cc1ccc2c(c1)c1c(C)ccc(C)c1n2CCCCCCCS` [5b, 7-(1,4,6-Trimethyl-9H-carbazol-9-yl)-heptane-1-thiol], with greater than 100 µM; and `SCCCCCCCCn1c2ccccc2c2ccccc21` [6a, 8-(9H-Carbazol-9-yl)octane-1-thiol], with greater than 100 µM; and `Cc1ccc2c(c1)c1c(C)ccc(C)c1n2CCCCCCCCS` [6b, 8-(1,4,6-Trimethyl-9H-carbazol-9-yl)-octane-1-thiol], with greater than 100 µM.
Still for that read-out and setting: then `Cc1ccc(C)c2c1c1cc(Br)ccc1n2CCCCCCCCS` [6c, 8-(6-Bromo-1,4-dimethyl-9H-carbazol-9-yl)-octane-1-thiol], with greater than 100 µM; and `SCCCCCCCCCn1c2ccccc2c2ccccc21` [7a, 9-(9H-Carbazol-9-yl)nonane-1-thiol], with greater than 100 µM.
Still for that read-out and setting: then `Cc1ccc2c(c1)c1c(C)ccc(C)c1n2CCCCCCCCCS` [7b, 9-(1,4,6-Trimethyl-9H-carbazol-9-yl)-nonane-1-thiol], with greater than 100 µM.
As to `Cc1ccc(C)c2c1c1cc(Br)ccc1n2CCCCCCCCCS` [7c, 9-(6-Bromo-1,4-dimethyl-9H-carbazol-9-yl)-nonane-1-thiol], the IC50 is greater than 100 µM.
On the same count and under the same terms, then `Cc1c2ccncc2c(C)c2c1[nH]c1ccccc12` [Ellipticine, reference compound], with 0.98 ± 0.7 µM.

A further assay concerns the target hTopoII (Homo sapiens, UniProt P11388). Kind of assay: Human topoisomerase II decatenation assay. The class given is biochemical. The settings on record: 50 µM, reference molecule. As to the method:
Human topoisomerase II decatenation assay: hTopoII decatenation assays were performed as reported in Iacopetta et al.[8].
Figure 2. hTopoII inhibition assay. kDNA was incubated with human Topoisomerase II in the absence (lane C, vehicle DMSO) or presence of compound 5c (lane 5c) or Ellipticine (lane E) at 10 and 50 µM, respectively. Lane K, kinetoplast DNA (kDNA).
Take `Cc1c2ccncc2c(C)c2c1[nH]c1ccccc12` [Ellipticine, reference compound]: the “hTopoII inhibition (kDNA decatenation)” value is “complete inhibition”.

Broadly, the IC50 is the concentration at which inhibition is half-maximal.
